Source: ChEMBL document CHEMBL1681639, “Discovery of substituted 3-(phenylamino)benzoic acids as potent and selective inhibitors of type 5 17β-hydroxysteroid dehydrogenase (AKR1C3)” (Bioorg Med Chem Lett, 2011)

These molecules were tested against T1, Aldo-keto reductase family 1 member C3 (Homo sapiens, UniProt P42330) (assay: Inhibition of AKR1C3 by fluorimetric method).
T1 sequence (P42330 whole entry): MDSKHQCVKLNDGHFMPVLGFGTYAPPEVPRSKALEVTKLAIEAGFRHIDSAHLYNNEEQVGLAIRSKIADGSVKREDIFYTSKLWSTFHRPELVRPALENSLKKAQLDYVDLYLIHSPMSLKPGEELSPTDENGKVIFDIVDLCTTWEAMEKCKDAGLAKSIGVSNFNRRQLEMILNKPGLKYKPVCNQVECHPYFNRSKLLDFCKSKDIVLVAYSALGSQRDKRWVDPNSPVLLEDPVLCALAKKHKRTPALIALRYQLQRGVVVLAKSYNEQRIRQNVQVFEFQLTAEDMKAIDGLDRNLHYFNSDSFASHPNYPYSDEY
With `O=C(O)c1cccc(Nc2ccc(C(F)(F)F)cc2)c1` the IC50 was 0.062 µM. For `COc1ccc(Nc2cccc(C(=O)O)c2)cc1`, the IC50 was 0.49 µM. Molecule `O=C(O)c1ccccc1Nc1cccc(C(F)(F)F)c1` [FLUFENAMIC ACID] has an IC50 of 0.051 µM. With `Cc1ccc(Nc2cccc(C(=O)O)c2)cc1` the IC50 was 0.7 µM. Molecule `O=C(O)c1cccc(Nc2ccc(Cl)cc2)c1` has an IC50 of 0.13 µM.
